Legend:
Alpha1d = target: T1, Alpha1d (Homo sapiens, UniProt P25100); assay: PDSP competitive binding assay; conditions: 10 µM test article; read-out: Ki: primary assay inhibition of radioligand binding, Alpha1d
T1 construct: purchased NIMH Psychoactive Drug Screening Program (PDSP), University of North Carolina at Chapel Hill

p-eIF2α in HEK293T cells = assay: p-eIF2α ICC and spectrophotometry in HEK293T cells; assay type: cell-based, human
Method: The ICC protocol was based on a previously published protocol ([76]). […] Cells were blocked with 10% normal goat serum (NGS) in PBS-triton X (0.1%). […] Antibodies were incubated at 4 °C overnight. […] It was washed with PBS twice. […] Images were analyzed using Olympus CellSens. […] Number of cells analyzed are detailed in SI Appendix, Tables S3 and S4.
Human embryonic kidney (HEK) 293 T cells (ATCC # CRL-3216) were generously donated by the Campbell Lab (UT Dallas). Cells were grown at 37 °C with 5% CO2 in complete medium (10% FBS, 1% Pen-Strep in DMEM/F12 + GlutaMax (Gibco #10565-018) in T-75 flasks (Greiner Bio-One #658175). In a 96-well plate (ThermoFisher #165305), cells were plated at a density of 20,000 cells per well and grown to roughly 65% confluency before being treated with FEM-1689. For 2-h FEM-1689 treatment, HEK cells were plated at a density of 32,000 cells per well and treated at roughly 85% confluency. Three to five replicates were made per condition/dose (1/2 log steps ranging from 0.1 to 1,000 nM). ICC was performed to label p-eIF2α and DAPI. Immunofluorescence of HEK cells was quantified using the Synergy HTX Multimode Reader. For further details regarding the culturing of HEK cells, see SI Appendix. […]
Huma n e mbryon ic kidn ey (HEK) 293T ce lls (ATCC # C RL- 321 6) were ge nerously dona ted by th e Ca mpb ell Lab (UT Dallas). Cell stock s were previously fr ozen at 1 million cells/ml in 90% fetal bov ine s erum (F BS, ThermoFisher #SH300880340) and 10% DMSO. Cells were grown in complete medium (10% FBS, 1% Pen- Strep in DMEM/F12 + GlutaMax (Gibco #10565- 018) in T-75 flasks (Greiner Bio- One #658175). Cells were maintained at 37 °C with 5% CO2 and passaged twice before being plated onto either 96-well or 6-well plates for ICC/spectrophotometry and western blotting, respectively. Cells were counted using the TC20 automated cell counter (Bio- R ad #1450102) using a 1:1 dilution of trypan blue (Gibco #15250061).
In a 9 6-well p lat e (Therm oFisher #16 530 5), cells were p late d at a de nsity of 20,0 00 cells per w ell a nd gro wn to rou gh ly 65 % conf lu ency before be in g tre ate d w ith F EM- 16 89. For 2 h our F EM- 1689 trea tme nt, HEK ce lls were plated at a density of 32,000 cells per well and treated at roughly 85% confluency. […] Immunofluorescence of HEK cells was quantif ied using the Synergy HTX Multimode Reader. […] Wells were topped with 100 µL of 1X PBS prior to being read. DAPI and p -eIF2α reads were performed at bottom with a gain of 3 5 a nd 45, r espective ly. […]
fluorescence units (RFUs) of the negative controls were subtracted from each well. P-eIF2α fluorescence was normalized to DAPI in order to control for the number of cells present in the well and then to the fluoresce nce of th e veh icle t reatme nt as a p ercenta ge. […]

T1 sequence (P25100 whole entry): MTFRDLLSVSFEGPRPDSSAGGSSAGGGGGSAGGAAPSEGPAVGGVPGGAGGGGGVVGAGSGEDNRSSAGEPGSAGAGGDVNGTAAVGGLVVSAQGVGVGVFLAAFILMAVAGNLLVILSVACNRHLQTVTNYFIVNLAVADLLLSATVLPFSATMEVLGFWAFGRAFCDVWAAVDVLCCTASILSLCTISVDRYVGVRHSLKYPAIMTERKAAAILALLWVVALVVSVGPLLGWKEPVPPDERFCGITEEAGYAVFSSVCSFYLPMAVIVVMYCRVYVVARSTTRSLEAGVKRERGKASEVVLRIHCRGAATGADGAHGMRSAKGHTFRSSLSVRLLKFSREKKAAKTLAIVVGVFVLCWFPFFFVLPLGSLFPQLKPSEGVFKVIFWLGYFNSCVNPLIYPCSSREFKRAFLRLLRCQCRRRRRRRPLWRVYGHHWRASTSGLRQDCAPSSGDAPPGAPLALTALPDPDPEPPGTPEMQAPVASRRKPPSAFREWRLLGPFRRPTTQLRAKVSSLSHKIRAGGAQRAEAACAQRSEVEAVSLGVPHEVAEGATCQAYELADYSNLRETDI

Compound `OCCCN1CC[C@@H]2C[C@H]1c1cc(-c3ccc(C(F)(F)F)cc3)ccc12` [FEM-1689] has an inhibition at 10 µM (Alpha1d) of less than 50%, an IC50 (p-eIF2α in HEK293T cells; 2 h treatment) of 5.89 nM and an IC50 (p-eIF2α in HEK293T cells; 16 h treatment) of 0.74 nM. It also gave an IC50 (p-eIF2α in HEK293T cells; Homo sapiens, HEK-293T, 2 h, 2 h treatment) of 5.9 nM and an IC50 (p-eIF2α in HEK293T cells; Homo sapiens, HEK-293T, 16 h, 16 h treatment) of 0.7 nM.
